From patent publication US12138329B2, “Gel cleansing agent” (SHISEIDO HONEYCAKE INDUSTRIES CO., LTD., priority 2019, dated 2024)

Experiment: pH of 1% aqueous solution
Format: physicochemical
Conditions: polyoxyethylene alkyl ether carboxylate

pH of 1% aqueous solution, 60% neutralization (60% neutralization): about 5.7
pH of 1% aqueous solution, 90% neutralization (90% neutralization): about 6.5
pH of 1% aqueous solution, 100% neutralization (100% neutralization): about 7.8
Substance: NaOH
